The structures appear in SMILES notation. pEC50: −log10 of the molar value.

This assay deals with human LPAR1 (Homo sapiens, UniProt Q92633). Description: LPAR1 intracellular calcium mobilization assay (antagonist mode). In general terms: Calcium assays in cells follow changes in intracellular calcium, usually with a dye or a luminescent sensor.
human LPAR1, sequence (Q92633 whole entry): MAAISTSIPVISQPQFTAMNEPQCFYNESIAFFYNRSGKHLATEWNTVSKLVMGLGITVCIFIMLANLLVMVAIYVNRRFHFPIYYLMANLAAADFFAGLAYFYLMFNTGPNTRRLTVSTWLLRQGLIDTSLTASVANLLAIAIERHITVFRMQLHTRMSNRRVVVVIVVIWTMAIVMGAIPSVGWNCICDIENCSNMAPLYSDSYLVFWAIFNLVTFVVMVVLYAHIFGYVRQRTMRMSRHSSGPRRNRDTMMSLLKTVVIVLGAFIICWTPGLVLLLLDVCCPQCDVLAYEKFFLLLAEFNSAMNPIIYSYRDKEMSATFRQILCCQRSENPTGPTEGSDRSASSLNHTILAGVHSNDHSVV

Experimental: In vitro LPAR1 activity was measured in an intracellular calcium mobilization assay.
Prior to testing cell media were aspirated from the cells and replaced with 20 μL Calcium Dye Loading Buffer (DiscoverX Calcium NoWash^PLUS Assay Kit cat #90-0091) and 2.5 mM Probenecid (Sigma Aldrich cat #P8761, prepared fresh) in HBSS/20 mM Hepes for 60 min at 37° C.
For agonist dose curves, cells were removed from the incubator after dye loading and 10 μL HBSS/20 mM Hepes including 3× vehicle was added. Cells were incubated for 30 min at room temperature in the dark to equilibrate plate temperatures. An intermediate LPA dilution series was prepared in assay buffer to generate 4× stock. Calcium mobilization was monitored on a FLIPR Tetra (MDS, San Jose, Calif.) for 2 min and 10 μL 4×LPA in HBSS/20 mM Hepes was added to the cells 5 s into the assay.
An intermediate antagonist dilution series was prepared as 3× samples in assay buffer. After dye loading, cells were removed from the incubator and 10 μL 3× antagonist was added. Cells were incubated for 30 min at room temperature in the dark to equilibrate plate temperatures. The final vehicle (DMSO) concentration was 1%. Compound antagonist activities was measured on a FLIPR Tetra. Calcium mobilization was monitored for 2 min and 10 μL EC80 agonist in HBSS/20 mM Hepes was added to the cells 5 s into the assay. Compound activity was analyzed using CBIS data analysis suite (ChemInnovation Software, San Diego, Calif.).

As for `COC1CN(S(=O)(=O)Nc2ccc(-c3nnn(C)c3NC(=O)O[C@H](C)c3cccc(F)c3)nc2C)C1` [Compound 108, (R)-1-(3-fluoro-phenyl)ethyl (4-(5-((3-methoxy-azetidine)-1-sulfonamido)-6-methylpyridin-2-yl)-1-methyl-1H-1,2,3-triazol-5-yl)carbamate], the pEC50 (usually the negative decadic logarithm of the EC50, by convention in mol/L) was 5.00.
Turning to `C[C@@H](OC(=O)Nc1c(-c2ccc(NS(C)(=O)=O)cn2)nnn1C)c1cccc(Cl)c1` [Compound 14, (R)-1-(3-chlorophenyl)ethyl (1-methyl-4-(5-(methylsulfonamido)pyridin-2-yl)-1H-1,2,3-triazol-5-yl)carbamate], the pEC50 is 7.18.
As for `C[C@@H](OC(=O)Nc1c(-c2ccc(NS(C)(=O)=O)cn2)nnn1C)c1cccnc1Br` [Compound 116, (R)-1-(2-bromopyridin-3-yl)ethyl (1-methyl-4-(5-(methylsulfonamido)pyridin-2-yl)-1H-1,2,3-triazol-5-yl)carbamate], the pEC50 was 6.89.
As for `COc1nc(-c2nnn(C)c2NC(=O)O[C@H](C)c2ccccc2)ccc1NS(C)(=O)=O` [Compound 1, (R)-1-phenylethyl (4-(6-methoxy-5-(methylsulfonamido)pyridin-2-yl)-1-methyl-1H-1,2,3-triazol-5-yl)carbamate], the pEC50 was 6.49.
For `CSc1ccccc1[C@@H](C)OC(=O)Nc1c(-c2ccc(NS(C)(=O)=O)c(C)n2)nnn1C` [Compound 55, (R)-1-(2-(methylthio)phenyl)ethyl (1-methyl-4-(6-methyl-5-(methylsulfonamido)pyridin-2-yl)-1H-1,2,3-triazol-5-yl)carbamate], the negative-log EC50 (pEC50) was 7.19.
Then `Cc1nc(-c2nnn(CC#N)c2NC(=O)O[C@H](C)c2ccccc2)ccc1NS(C)(=O)=O` [Compound 99, (R)-1-phenylethyl(1-(cyanomethyl)-4-(6-methyl-5-(methylsulfonamido)pyridin-2-yl)-1H-1,2,3-triazol-5-yl)carbamate], with 7.35; and `CCCn1nnc(-c2ccc(NS(C)(=O)=O)c(C)n2)c1NC(=O)O[C@H](C)c1ccccc1Cl` [Compound 12, (R)-1-(2-chlorophenyl)ethyl (4-(6-methyl-5-(methylsulfonamido)pyridin-2-yl)-1-propyl-1H-1,2,3-triazol-5-yl)carbamate], with 6.66; and `C[C@@H](OC(=O)Nc1c(-c2ccc(NS(C)(=O)=O)c(F)n2)nnn1C)c1ccccc1Cl` [Compound 5, (R)-1-(2-chlorophenyl)ethyl (4-(6-fluoro-5-(methylsulfonamido)pyridin-2-yl)-1-methyl-1H-1,2,3-triazol-5-yl)carbamate], with 7.46.
Turning to `Cc1nc(-c2nnn(C)c2NC(=O)O[C@H](C)c2cc(Cl)ccc2Cl)ccc1NS(C)(=O)=O` [Compound 61, (R)-1-(2,5-dichlorophenyl)ethyl (1-methyl-4-(6-methyl-5-(methylsulfonamido)pyridin-2-yl)-1H-1,2,3-triazol-5-yl)carbamate], the pEC50 was 7.52.
Under `Cc1nc(-c2nnn(C)c2NC(=O)O[C@H](C)c2cccc(F)c2F)ccc1NS(C)(=O)=O` [Compound 87, (R)-1-(2,3-difluorophenyl)ethyl(1-methyl-4-(6-methyl-5-(methylsulfonamido)pyridin-2-yl)-1H-1,2,3-triazol-5-yl)carbamate] stands 6.51; under `Cc1nc(-c2nnn(C)c2NC(=O)OC(C2CCCCC2)C(F)(F)F)ccc1NS(C)(=O)=O` (stereo not shown) [Compound 48, 1-cyclohexyl-2,2,2-trifluoroethyl (1-methyl-4-(6-methyl-5-(methylsulfonamido)pyridin-2-yl)-1H-1,2,3-triazol-5-yl)carbamate], 6.79.
Under `Cc1nc(-c2nnn(C)c2NC(=O)O[C@H](CC#N)c2ccccc2)ccc1NS(C)(=O)=O` [Compound 50, (R)-2-cyano-1-phenylethyl (1-methyl-4-(6-methyl-5-(methylsulfonamido)pyridin-2-yl)-1H-1,2,3-triazol-5-yl)carbamate] stands 6.14; under `C[C@@H](OC(=O)Nc1c(-c2ccc(NS(C)(=O)=O)c(F)n2)nnn1C)c1ccccc1` [Compound 3, (R)-1-phenylethyl (4-(6-fluoro-5-(methylsulfonamido)pyridin-2-yl)-1-methyl-1H-1,2,3-triazol-5-yl)carbamate], 6.78; under `Cc1nc(-c2nnn(C)c2NC(=O)O[C@H](CF)c2ccccc2)ccc1NS(C)(=O)=O` [Compound 59, (S)-2-fluoro-1-phenylethyl (1-methyl-4-(6-methyl-5-(methylsulfonamido)pyridin-2-yl)-1H-1,2,3-triazol-5-yl)carbamate], 7.42.
In the case of `Cc1ccc(C)c([C@@H](C)OC(=O)Nc2c(-c3ccc(NS(C)(=O)=O)c(C)n3)nnn2C)c1` [Compound 27, (R)-1-(2,5-dimethylphenyl)ethyl (1-methyl-4-(6-methyl-5-(methylsulfonamido)pyridin-2-yl)-1H-1,2,3-triazol-5-yl)carbamate], the pEC50 was 7.24.
In the case of `Cc1nc(-c2nnn(C)c2NC(=O)O[C@H](C)c2ccccc2Cl)ccc1NS(=O)(=O)C1CC1` [Compound 103, (R)-1-(2-chloro-phenyl)ethyl(4-(5-(cyclopropane-sulfonamido)-6-methylpyridin-2-yl)-1-methyl-1H-1,2,3-triazol-5-yl)carbamate], the pEC50 was 7.25.
Then `CC(OC(=O)Nc1c(-c2ccc(NS(C)(=O)=O)cn2)nnn1C)c1c(F)ccnc1Cl` (stereo not shown) [Compound 121, 1-(2-chloro-4-fluoropyridin-3-yl)ethyl (1-methyl-4-(5-(methylsulfonamido)pyridin-2-yl)-1H-1,2,3-triazol-5-yl)carbamate], with 6.34; and `Cc1nc(-c2nnn(C)c2NC(=O)O[C@H](C)c2ccccc2Cl)ccc1N(C)S(C)(=O)=O` [Compound 86, (R)-1-(2-chlorophenyl)ethyl(1-methyl-4-(6-methyl-5-(N-methylmethylsulfonamido)pyridin-2-yl)-1H-1,2,3-triazol-5-yl)carbamate], with 7.26.
In the case of `Cc1nc(-c2nnn(C)c2NC(=O)O[C@H](C)c2cc(F)ccc2Cl)ccc1NS(C)(=O)=O` [Compound 60, (R)-1-(2-chloro-5-fluorophenyl)ethyl (1-methyl-4-(6-methyl-5-(methylsulfonamido)pyridin-2-yl)-1H-1,2,3-triazol-5-yl)carbamate], the pEC50 is 7.50.
Under `Cc1nc(-c2nnn(C)c2NC(=O)O[C@H](C)c2cccnc2Cl)ccc1NS(C)(=O)=O` [Compound 68, (R)-1-(2-chloropyridin-3-yl)ethyl (1-methyl-4-(6-methyl-5-(methylsulfonamido)pyridin-2-yl)-1H-1,2,3-triazol-5-yl)carbamate] stands 6.66; under `Cc1nc(-c2nnn(C)c2NC(=O)OCc2ccccc2Cl)ccc1NS(C)(=O)=O` [Compound 40, 2-chlorobenzyl (1-methyl-4-(6-methyl-5-(methylsulfonamido)pyridin-2-yl)-1H-1,2,3-triazol-5-yl)carbamate], 7.06.
Take `Cc1nc(-c2nnn(C)c2NC(=O)OC(C)c2cc(Br)cnc2Cl)ccc1NS(C)(=O)=O` (stereo not shown) [Compound 130, 1-(5-bromo-2-chloropyridin-3-yl)ethyl (1-methyl-4-(6-methyl-5-(methylsulfonamido)pyridin-2-yl)-1H-1,2,3-triazol-5-yl)carbamate]: the pEC50 was 6.57.
Under `Cc1ncc(S(=O)(=O)Nc2ccc(-c3nnn(C)c3NC(=O)O[C@H](C)c3cccc(F)c3)nc2C)s1` [Compound 107, (R)-1-(3-fluoro-phenyl)ethyl (1-methyl-4-(6-methyl-5-((2-methylthiazole)-5-sulfonamido)pyridin-2-yl)-1H-1,2,3-triazol-5-yl)carbamate] stands 5.95; under `Cc1nc(-c2nnn(C)c2NC(=O)O[C@H](C)c2cc(Cl)ccc2F)ccc1NS(C)(=O)=O` [Compound 56, (R)-1-(5-chloro-2-fluorophenyl)ethyl (1-methyl-4-(6-methyl-5-(methylsulfonamido)pyridin-2-yl)-1H-1,2,3-triazol-5-yl)carbamate], 7.22; under `C[C@@H](OC(=O)Nc1c(-c2ccc(NS(C)(=O)=O)cn2)nnn1C)c1cc(F)ccc1F` [Compound 17, (R)-1-(2,5-difluorophenyl)ethyl (1-methyl-4-(5-(methylsulfonamido)pyridin-2-yl)-1H-1,2,3-triazol-5-yl)carbamate], 8.30.
For the molecule `Cc1nc(-c2nnn(C)c2NC(=O)O[C@@H](c2ccccc2F)C(F)F)ccc1NS(C)(=O)=O` [Compound 54, (S)-2,2-difluoro-1-(2-fluorophenyl)ethyl (1-methyl-4-(6-methyl-5-(methylsulfonamido)pyridin-2-yl)-1H-1,2,3-triazol-5-yl)carbamate], the pEC50 was 7.04.
Then `CCc1nc(-c2nnn(C)c2NC(=O)O[C@H](C)c2cc(F)cnc2Cl)ccc1NS(C)(=O)=O` [Compound 147, (R)-1-(2-chloro-5-fluoropyridin-3-yl)ethyl (4-(6-ethyl-5-(methylsulfonamido)pyridin-2-yl)-1-methyl-1H-1,2,3-triazol-5-yl)carbamate], with 6.90; and `C[C@@H](OC(=O)Nc1c(-c2ncc(NS(C)(=O)=O)cc2F)nnn1C)c1ccccc1Cl` [Compound 89, (R)-1-(2-chlorophenyl)ethyl(4-(3-fluoro-5-(methylsulfonamido)pyridin-2-yl)-1-methyl-1H-1,2,3-triazol-5-yl)carbamate], with 7.50.
For the molecule `Cc1nc(-c2nnn(C)c2NC(=O)OC2c3ccccc3CC2F)ccc1NS(C)(=O)=O` (stereo not shown) [Compound 73, 2-fluoro-2,3-dihydro-1H-inden-1-yl (1-methyl-4-(6-methyl-5-(methylsulfonamido)pyridin-2-yl)-1H-1,2,3-triazol-5-yl)carbamate], the negative-log EC50 (pEC50) was 5.49.
Under `Cc1nc(-c2nnn(C)c2NC(=O)O[C@H](CCl)c2ccccc2)ccc1NS(C)(=O)=O` [Compound 49, (S)-2-chloro-1-phenylethyl (1-methyl-4-(6-methyl-5-(methylsulfonamido)pyridin-2-yl)-1H-1,2,3-triazol-5-yl)carbamate] stands 6.69; under `Cc1nc(-c2nnn(C)c2NC(=O)O[C@H](C)c2ccccc2Cl)ccc1NS(=O)(=O)CC#N` [Compound 102, (R)-1-(2-chloro-phenyl)ethyl (4-(5-((cyano-methyl)sulfonamido)-6-methyl-pyridin-2-yl)-1-methyl-1H-1,2,3-triazol-5-yl)carbamate], 7.05.

For the origin of these results see patent US11548871B2, “Triazole carbamate pyridyl sulfonamides as LPA receptor antagonists and uses thereof” (Gilead Sciences, Inc., priority 2019, dated 2023).
